Source: patent US12161632B2, “Compositions and methods of treating cardiac fibrosis with ifetroban” (Cumberland Pharmaceuticals Inc., priority 2014, dated 2024)
Entries after “also recorded” stand apart in the source; their conditions may differ.

Key:
Format in all cases: in vivo
[1] = test system: pulmonary artery banding (PAB) model of right ventricular pressure overload; assay: PAB model of right ventricular pressure overload: hemodynamics, echocardiography, histology (Example VII); details: PAB mice; for RV fibrosis / fibrotic area (Masson's trichrome): ifetroban 25 mg/kg/day in drinking water; for cardiomyocyte diameter / cellular hypertrophy: ifetroban 25 mg/kg/day
Description: Both male and female age-matched C57Bl/6 or FVB/NJ mice, obtained by in-house breeding, were used for pulmonary artery banding. LysM-GFP mice were obtained by cross-breeding LysM-Cre×mTomato/GFP reporter mice B6.129P2-Lyz2tm1(cre)Ifo/J (a gift from Tim Blackwell)×Gt(ROSA)26Sortm4(ACTB-tdTomato, -EGFP)Luo (JAX stock #007676). The day following surgery, mice were given either 25 mg/kg/day IFETROBAN (Cumberland Pharmaceuticals Inc., Nashville, TN) in drinking water or normal drinking water (vehicle) for 2 weeks or 6 weeks prior to hemodynamic evaluation. Mice were weighed and water was changed once a week.
An RVSP of 30 mmHg was used to define PAH, and only samples from mice at or above this threshold were used for analysis of PAB groups. […] Two weeks after PAB, fibrosis in the RV of untreated mice has increased from <5% to […] (blue stain) in histologic sections of frozen RV stained with Masson's trichrome.
In the previous experiments, there was an increase in RV mass but not yet any change in cardiac output or other functional parameters, apart from E/A wave ratio, following PAB. To determine whether the decrease in fibrosis seen with TP receptor antagonism leads to increased preservation of cardiac function, the period following PAB-induced pressure overload was extended to 6 weeks and dosing with ifetroban was continued to 6 weeks, as well. […] This was associated with a decreased ejection fraction and decreased fractional shortening, signs of cardiac failure. All of these were prevented in PAB mice that received ifetroban, despite similar RVSP. Mice underwent sham surgery or PAB and echocardiography and pressure-loop catheterization performed after 6 weeks. End diastolic and systolic volume of the left ventricle were measured using the average of values calculated using both spherical and cylindrical models. Also obtained from echocardiography were the left ventricular stroke volume and ejection fraction, as well as percent fractional shortening.

[2] = test system: right ventricle under load stress (pulmonary banding); assay: Pulmonary banding load stress model: hemodynamics, heart fibrosis and macrophage infiltration (Example IV); details: banded mice, 25 mg/kg/day in drinking water, 2 weeks
Description: FVB/N mice or mice with a GFP macrophage-specific lineage tracing marker (LysM-Cre) underwent pulmonary banding to directly increase load stress (or sham surgery for controls), and starting the following day received either vehicle or the thromboxane receptor antagonist Ifetroban sodium in their drinking water (25 mg/kg/day). After 2 weeks, noninvasive hemodynamics were obtained by transthoracic echocardiography and invasive hemodynamics were obtained by pressure-volume catheterization of the right heart prior to sacrifice. Hearts were assessed for fibrosis and macrophage infiltration. RNA from right ventricles were isolated and used for unbiased discovery of altered gene expression using Affymetrix Mouse Gene 2.0 arrays performed on four groups (banded or sham). LysM-Cre mouse hearts were flash-frozen whole, cross-sectioned, and assessed by microscopy for fibrosis and macrophage infiltration. Differences between groups were assessed by ANOVA and t-tests. Correlations were assessed by Spearman correlation.

[3] = test system: RV gene expression; assay: Gene expression arrays on pooled RV from sham or PAB mice (Example VII)
Excerpt: To determine the mechanism through which ifetroban reduced fibrosis and protected RV contractility, we performed gene expression arrays on sets of pooled RV from mice with sham or PAB surgery, with and without drug treatment. By principal components analysis strong effect of banding was found, and an effect of ifetroban only in mice that had undergone banding. […] In particular, there were changes in gene expression associated with adhesion, collagen organization, extracellular structure, and developmental processes.

[4] = only in the context of pressure overload

## CCCCCNC(=O)c1coc([C@H]2[C@@H](Cc3ccccc3CCC(=O)O)[C@@H]3CC[C@H]2O3)n1 [ifetroban, [1S-(1α,2α,3α,4α)]-2-[[3-[4-[(Pentylamino)carbonyl]-2-oxazolyl]-7-oxabicyclo[2.2.1]hept-2-yl]methyl]-benzenepropanoic acid]
[1]; 25 mg/kg/day, 2 weeks
  RV mass (ratio of right ventricular weight to left ventricle+septum weight): similarly increased in vehicle- and ifetroban-treated PAB groups; also recorded: not blocked
[1]; 25 mg/kg/day, 2 weeks, p<0.05 by ANOVA
  tricuspid E/A wave ratio (echocardiography): increased; also recorded: improved
[1]; 25 mg/kg/day, 2 weeks, listed as Ifetroban
  RV mass (ratio of right ventricular weight to left ventricle+septum weight): allowing increased RV mass
[1]; 25 mg/kg/day, 6 weeks
  signs of cardiac failure (left ventricular dilation, increased stroke volume, decreased ejection fraction and fractional shortening): more functional adaptation and decreased indications of cardiac failure; also recorded: prevented
[1]; 2 weeks
  RV fibrosis / fibrotic area (Masson's trichrome): almost completely abolished
  cardiomyocyte diameter / cellular hypertrophy: blocked
[1]; 2 weeks, listed as Ifetroban
  RV fibrosis / fibrotic area (Masson's trichrome): near normalization of fibrotic area
  cardiomyocyte diameter / cellular hypertrophy: prevented cellular hypertrophy
[1]; 2 weeks, listed as ifetrobn
  RV fibrosis / fibrotic area (Masson's trichrome): antifibrotic effect
[1]; ifetroban, two weeks following PAB
  protection against pressure overload: protected against pressure overload
[2]
  fibrosis (heart): reduction in fibrosis
  hemodynamic markers of right heart function under load stress: preserved right heart function under load stress
  recruitment of inflammatory cells: reduction in recruitment of inflammatory cells
[3]; 25 mg/kg/day, 2 weeks
  principal components analysis of RV gene expression: strong effect of ifetroban only in mice with banding
[3]; PAB RV only
  Thbs4 expression (mRNA): strongly enhances
[3]; PAB mice
  expression of antifibrotic genes: increased expression
  expression of genes associated with fibrosis: reduced expression
[3]; PAB mice versus banded controls
  expression of genes associated with myogenic differentiation: enhanced
[3]; PAB mice, 25 mg/kg/day, 2 weeks
  RV expression of Cd14, Tlr8 and other pro-inflammatory genes: decreased RV expression
[3]; [4]
  expression of genes associated with inflammatory cell recruitment: reduced expression
  genes associated with adaptive remodeling: ifetroban-induced genes associated with adaptive remodeling
[3]; sham, 25 mg/kg/day, 2 weeks
  gene expression in mice with only sham surgeries: did not significantly change gene expression
